Several values for one entry are separate records, joined by “and”; a condition that tells them apart may be missing. Equal entries are not always repeated. Where two headings read alike, the source gives them in different places.
What was measured:
[1] = single agent, cited from earlier work
Pgp [2] = conditions: cited from earlier work
BCRP [3] = target: T1, BCRP (Homo sapiens, UniProt Q9UNQ0); conditions: read-out: in vitro Ki for inhibition of BCRP; cited from earlier work
T1 sequence (Q9UNQ0 1-655): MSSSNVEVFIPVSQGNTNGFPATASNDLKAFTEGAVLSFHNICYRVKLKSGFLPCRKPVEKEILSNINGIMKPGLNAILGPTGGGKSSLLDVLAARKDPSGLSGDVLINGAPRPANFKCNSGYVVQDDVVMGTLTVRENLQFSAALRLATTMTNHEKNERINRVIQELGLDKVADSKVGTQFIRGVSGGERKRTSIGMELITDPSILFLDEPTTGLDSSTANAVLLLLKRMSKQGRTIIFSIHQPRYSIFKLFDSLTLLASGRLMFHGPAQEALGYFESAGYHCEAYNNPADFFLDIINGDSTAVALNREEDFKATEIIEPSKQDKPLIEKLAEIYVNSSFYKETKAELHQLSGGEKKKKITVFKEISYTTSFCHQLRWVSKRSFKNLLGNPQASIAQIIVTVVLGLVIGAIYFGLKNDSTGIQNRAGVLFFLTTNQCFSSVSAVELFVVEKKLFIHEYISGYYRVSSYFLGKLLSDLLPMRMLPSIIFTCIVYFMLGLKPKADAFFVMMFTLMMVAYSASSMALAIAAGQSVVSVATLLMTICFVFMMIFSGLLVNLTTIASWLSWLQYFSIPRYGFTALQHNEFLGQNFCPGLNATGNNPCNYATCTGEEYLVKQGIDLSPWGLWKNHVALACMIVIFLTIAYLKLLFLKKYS

[4] = tested on: MDA-MB-231/empty vector cells; experiment: Clonogenic assay with topotecan plus lapatinib in MDA-MB-231/empty vector cells; assay type: cell-based; conditions: MDA-MB-231 cells transfected with empty vector, 1 µmol/L lapatinib, 24 h
[5] = tested on: BT474 human breast carcinoma xenografts; experiment: BT474 xenograft tumor growth inhibition; assay type: in vivo, CB-17 SCID mice
[6] = Phase I trial: plasma pharmacokinetics of topotecan and lapatinib; conditions: for AUC(0-t) / Cmax / Topotecan CLp: n = 9, geometric mean and 95% CI; for Cmax: Topotecan Cmax; for half-life / Topotecan CLNRF / Topotecan Vss: geometric mean and 95% CI; for Topotecan CLNRF: CLp minus CLCR
BCRP [7] = target: T1, BCRP; experiment: Topotecan accumulation by flow microfluorimetry in MDA-MB-231/BCRP cells; assay type: cell-based
[8] = tested on: patients with advanced solid tumors; experiment: Phase I trial: MTD, DLTs and adverse events; assay type: in vivo, human
[9] = cited from earlier work
[10] = assay type: in vivo, human; conditions: fit of CLNRF ratio versus lapatinib steady-state Cmin, ±35%
Pgp [11] = target: Pgp (Cricetulus griseus, UniProt P21448); experiment: Topotecan accumulation by flow microfluorimetry in CH^RC5 cells; assay type: cell-based, Chinese hamster; conditions: 1,000 nmol/L lapatinib, n = 3
Chain of Pgp (Cricetulus griseus, UniProt P21448) (P21448 whole entry): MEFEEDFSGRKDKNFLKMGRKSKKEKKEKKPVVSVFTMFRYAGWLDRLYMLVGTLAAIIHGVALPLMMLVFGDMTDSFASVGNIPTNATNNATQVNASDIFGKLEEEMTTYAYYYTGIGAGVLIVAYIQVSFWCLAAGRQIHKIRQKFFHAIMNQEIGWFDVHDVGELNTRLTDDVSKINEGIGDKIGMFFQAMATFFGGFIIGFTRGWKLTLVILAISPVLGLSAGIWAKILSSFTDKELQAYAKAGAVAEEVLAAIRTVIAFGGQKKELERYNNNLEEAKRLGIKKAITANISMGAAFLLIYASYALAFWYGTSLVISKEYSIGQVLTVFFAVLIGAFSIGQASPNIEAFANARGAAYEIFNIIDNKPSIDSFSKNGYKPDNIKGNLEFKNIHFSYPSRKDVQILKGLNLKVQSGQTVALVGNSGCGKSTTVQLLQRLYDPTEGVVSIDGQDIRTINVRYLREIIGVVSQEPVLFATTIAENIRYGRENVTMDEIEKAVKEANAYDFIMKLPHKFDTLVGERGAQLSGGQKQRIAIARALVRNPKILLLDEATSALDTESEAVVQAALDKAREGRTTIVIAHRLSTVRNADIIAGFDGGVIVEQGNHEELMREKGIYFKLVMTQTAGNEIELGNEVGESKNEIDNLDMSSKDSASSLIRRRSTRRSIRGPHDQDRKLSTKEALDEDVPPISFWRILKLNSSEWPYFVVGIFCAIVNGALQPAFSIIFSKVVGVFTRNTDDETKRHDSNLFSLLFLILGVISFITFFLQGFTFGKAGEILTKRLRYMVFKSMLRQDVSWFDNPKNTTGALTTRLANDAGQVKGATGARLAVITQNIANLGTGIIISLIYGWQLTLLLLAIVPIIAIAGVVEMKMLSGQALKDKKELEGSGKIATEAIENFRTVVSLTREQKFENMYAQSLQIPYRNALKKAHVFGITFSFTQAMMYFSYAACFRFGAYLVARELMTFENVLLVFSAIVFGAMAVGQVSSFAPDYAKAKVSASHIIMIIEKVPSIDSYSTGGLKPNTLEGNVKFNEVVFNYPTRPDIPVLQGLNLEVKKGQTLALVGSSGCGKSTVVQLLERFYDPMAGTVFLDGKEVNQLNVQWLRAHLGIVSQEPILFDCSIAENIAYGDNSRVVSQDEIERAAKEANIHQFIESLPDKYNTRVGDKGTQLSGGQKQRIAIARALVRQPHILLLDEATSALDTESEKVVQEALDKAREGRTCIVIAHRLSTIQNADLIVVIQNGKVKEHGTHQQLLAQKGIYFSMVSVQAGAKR

AuxB1 cells = experiment: Topotecan accumulation by flow microfluorimetry in AuxB1 cells; assay type: cell-based, Chinese hamster; conditions: AuxB1 cells (lower Pgp), compared with CH^RC5
[12] = tested on: MDA-MB-231/empty vector cells; experiment: Topotecan accumulation by flow microfluorimetry in MDA-MB-231/empty vector cells; assay type: cell-based; conditions: MDA-MB-231 cells transfected with empty vector
[13] = geometric least squares mean ratio and 90% CI

SMILES: CS(=O)(=O)CCNCc1ccc(-c2ccc3ncnc(Nc4ccc(OCc5cccc(F)c5)c(Cl)c4)c3c2)o1 [lapatinib]
- dose up to which lapatinib was well tolerated in phase I trials ([1]; diarrhea and rash dose limiting): up to 1,800 mg/d
- in vitro Ki for inhibition of Pgp (Pgp [2]): 2,300 ng/mL
- Ki (Pgp [2]; read-out: in vitro Ki for inhibition of Pgp): 3.9 µM
- Ki (BCRP [3]): 24.1 nM and 25 nM
- effect on topotecan-induced inhibition of colony formation [4]: little effect
- inhibition of BT474 tumor growth ([5]; lapatinib 30 mg/kg oral twice daily 21 d, study 2, day 70): 26%
- inhibition of BT474 tumor growth ([5]; lapatinib 60 mg/kg oral twice daily 21 d, study 1, day 56): 79%
- inhibition of BT474 tumor growth ([5]; lapatinib 100 mg/kg oral twice daily 21 d, study 1, day 56): 77%
- inhibition of BT474 tumor growth ([5]; lapatinib 100 mg/kg oral twice daily 21 d, study 2, day 70): 82%
- AUC(0-t) ([6]; human, plasma, oral, Lapatinib AUC0–24 h, lapatinib + topotecan (day 8)): 31700 ng·h/mL
- AUC(0-t) ([6]; human, plasma, oral, Lapatinib AUC0–24 h, lapatinib alone (day 7)): 23300 ng·h/mL
- Tmax ([6]; human, plasma, oral, Lapatinib Tmax, lapatinib alone (day 7), median and range): 3 h
- EC50 (BCRP [7]): 250 nM
- MTD and recommended phase II dose of lapatinib in the combination ([8]; for 28 days of a 28-day cycle): 1,250 mg/d
- Lapatinib AUC in mice ([9]; 30 mg/kg orally twice daily): 5 µg·h/mL
- Lapatinib Cmax in mice ([9]; 30 mg/kg orally twice daily): 1 µg/mL
- Lapatinib AUC in mice ([9]; 60 mg/kg orally twice daily): 29 µg·h/mL
- Lapatinib Cmax in mice ([9]; 60 mg/kg orally twice daily): 4 µg/mL
- Lapatinib AUC in mice ([9]; 100 mg/kg orally twice daily): 94 µg·h/mL
- Lapatinib Cmax in mice ([9]; 100 mg/kg orally twice daily): 9 µg/mL
- Ki (lapatinib concentration producing 50% inhibition of topotecan CLNRF) [10]: 2,349 ng/mL
- intracellular topotecan, % of steady-state accumulation in the absence of lapatinib (Pgp [11]): 220 ± 20%
- effect on intracellular topotecan (AuxB1 cells): more modest
- effect on intracellular topotecan [12]: little effect

SMILES: CC[C@@]1(O)C(=O)OCc2c1cc1n(c2=O)Cc2cc3c(CN(C)C)c(O)ccc3nc2-1 [topotecan]
- MTD for topotecan alone ([1]; × 3): 4 mg/m^2/wk
- topotecan doses at which neutropenia is the principal toxicity [1]: above 4 mg/m^2/wk
- inhibition of BT474 tumor growth ([5]; topotecan alone 6 mg/kg i.p. every 4 d × 3, study 2): 53%
- inhibition of BT474 tumor growth ([5]; topotecan alone 10 mg/kg i.p. every 4 d × 3, study 1): 66%
- inhibition of BT474 tumor growth ([5]; topotecan alone 10 mg/kg i.p. every 4 d × 3, study 2): 65%
- increase of topotecan AUC0–24 h in the presence of lapatinib ([6]; (7–29%)): 18%
- decrease of topotecan CLNRF when administered with lapatinib ([6]; (12–32%)): 22%
- decrease in topotecan CLp when administered with lapatinib ([6]; day 8 versus day 1): 16%
- Topotecan AUC0–24 h, day 8:day 1 ratio [6, 13]: 1.18 (1.07–1.29)
- Topotecan CLNRF, day 8:day 1 ratio [6, 13]: 0.78 (0.68–0.88)
- Topotecan CLp, day 8:day 1 ratio [6, 13]: 0.84 (0.76–0.92)
- Topotecan Cmax, day 8:day 1 ratio [6, 13]: 0.79 (0.66–0.92)
- Topotecan Vss, day 8:day 1 ratio [6, 13]: 0.99 (0.90–1.08)
- Topotecan t1/2, day 8:day 1 ratio [6, 13]: 1.01 (0.96–1.06)
- AUC(0-t) ([6]; human, plasma, intravenous, Topotecan AUC0–24 h, lapatinib + topotecan (day 8)): 510 ng·h/mL
- AUC(0-t) ([6]; human, plasma, intravenous, Topotecan AUC0–24 h, topotecan alone (day 1)): 432 ng·h/mL
- Cmax ([6]; human, plasma, intravenous, lapatinib + topotecan (day 8)): 128 ng/mL
- Cmax ([6]; human, plasma, intravenous, topotecan alone (day 1)): 162 ng/mL
- half-life ([6]; human, plasma, intravenous, Topotecan t1/2, lapatinib + topotecan (day 8)): 261 min
- half-life ([6]; human, plasma, intravenous, Topotecan t1/2, topotecan alone (day 1)): 258 min
- Topotecan CLNRF ([6]; lapatinib + topotecan (day 8)): 4.11 (2.72–5.50) L/h/m^2
- Topotecan Vss ([6]; lapatinib + topotecan (day 8)): 30.1(23.9–36.3) L/m^2
- Topotecan CLp ([6]; lapatinib + topotecan (day 8)): 6.14 L/h/m^2
- Topotecan CLp ([6]; lapatinib + topotecan (day 8), listed as Topotecan): 6.14 (4.27–8.01) L/h/m^2
- topotecan CLNRF as % of CLp ([6]; topotecan administered alone): 72%
- Topotecan CLNRF ([6]; topotecan alone (day 1)): 5.25 (3.99–6.51) L/h/m^2
- Topotecan Vss ([6]; topotecan alone (day 1)): 30.5 (26.5–34.5) L/m^2
- Topotecan CLp ([6]; topotecan alone (day 1)): 7.28 L/h/m^2
- Topotecan CLp ([6]; topotecan alone (day 1), listed as Topotecan): 7.28 (5.35–8.91) L/h/m^2
- topotecan CLNRF as % of CLp ([6]; topotecan and lapatinib administered together): 66%
- MTD and recommended phase II dose of topotecan in the combination ([8]; i.v. on days 1, 8, 15 of a 28-day cycle): 3.2 mg/m^2
